Laboratory results: PubChem BioAssay (NCI)
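The compound was tested at five concentrations on cells cultured in 96-well plates, with a 48-hour exposure period. TGI: concentration producing complete growth inhibition.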

How the values were obtained:
Experiment in all cases: NCI tumour cell line growth inhibition, 48 h
A498 renal = system: A498 renal
UACC-62 melanoma = system: UACC-62 melanoma
SK-MEL-5 melanoma = system: SK-MEL-5 melanoma
SK-MEL-28 melanoma = system: SK-MEL-28 melanoma
SF-539 CNS = system: SF-539 CNS
LOX IMVI melanoma = system: LOX IMVI melanoma
SK-MEL-2 melanoma = system: SK-MEL-2 melanoma
CCRF-CEM leukemia = system: CCRF-CEM leukemia
SN12K1 renal = system: SN12K1 renal
RXF 393 renal = system: RXF 393 renal
OVCAR-5 ovarian = system: OVCAR-5 ovarian
HOP-92 NSCLC = system: HOP-92 NSCLC
P388/ADR leukemia = system: P388/ADR leukemia
HT29 colon = system: HT29 colon
RPMI-8226 leukemia = system: RPMI-8226 leukemia
XF 498 CNS = system: XF 498 CNS
NCI-H226 lung = system: NCI-H226 lung
CAKI-1 renal = system: CAKI-1 renal
HCC-2998 colon = system: HCC-2998 colon
SN12C renal = system: SN12C renal
UACC-257 melanoma = system: UACC-257 melanoma
HOP-18 NSCLC = system: HOP-18 NSCLC
UO-31 renal = system: UO-31 renal
SF-268 CNS = system: SF-268 CNS
HCT-15 colon = system: HCT-15 colon
NCI-H460 lung = system: NCI-H460 lung
KM20L2 colon = system: KM20L2 colon
A549 NSCLC = system: A549 NSCLC
KM12 colon = system: KM12 colon
IGROV1 ovarian = system: IGROV1 ovarian
NCI-H522 lung = system: NCI-H522 lung
SF-295 CNS = system: SF-295 CNS
SW-620 colon = system: SW-620 colon
K-562 leukemia = system: K-562 leukemia
OVCAR-4 ovarian = system: OVCAR-4 ovarian
HL-60(TB) leukemia = system: HL-60(TB) leukemia
OVCAR-8 ovarian = system: OVCAR-8 ovarian
OVCAR-3 ovarian = system: OVCAR-3 ovarian
HOP-62 NSCLC = system: HOP-62 NSCLC
COLO 205 colon = system: COLO 205 colon
DMS 114 small cell lung = system: DMS 114 small cell lung
SNB-78 CNS = system: SNB-78 CNS
MOLT-4 leukemia = system: MOLT-4 leukemia
DLD-1 colon = system: DLD-1 colon
SNB-75 CNS = system: SNB-75 CNS
EKVX NSCLC = system: EKVX NSCLC
MALME-3M melanoma = system: MALME-3M melanoma
SNB-19 CNS = system: SNB-19 CNS
M19-MEL melanoma = system: M19-MEL melanoma
DMS 273 small cell lung = system: DMS 273 small cell lung
MCF7 breast = system: MCF7 breast
SK-OV-3 ovarian = system: SK-OV-3 ovarian
HCT-116 colon = system: HCT-116 colon
P388 leukemia = system: P388 leukemia
U251 CNS = system: U251 CNS
NCI/ADR-RES ovarian = system: NCI/ADR-RES ovarian
NCI-H23 lung = system: NCI-H23 lung

**Q.** Which results are given for `CNC(=O)SCC(NC(=O)CCC(N)C(=O)O)C(=O)NCC(=O)O` (configuration not stated)?
**A.** TGI (A498 renal): > 100 µM; TGI (UACC-62 melanoma): > 100 µM; TGI (SK-MEL-5 melanoma): > 100 µM; TGI (SK-MEL-28 melanoma): > 100 µM; TGI (SF-539 CNS): > 100 µM; TGI (LOX IMVI melanoma): > 100 µM; TGI (SK-MEL-2 melanoma): > 100 µM; TGI (CCRF-CEM leukemia): > 100 µM; TGI (SN12K1 renal): > 100 µM; TGI (RXF 393 renal): > 100 µM; TGI (OVCAR-5 ovarian): > 100 µM; TGI (HOP-92 NSCLC): > 100 µM; TGI (P388/ADR leukemia): > 100 µM; TGI (HT29 colon): > 100 µM; TGI (RPMI-8226 leukemia): > 100 µM; TGI (XF 498 CNS): > 100 µM; TGI (NCI-H226 lung): > 100 µM; TGI (CAKI-1 renal): > 100 µM; TGI (HCC-2998 colon): > 100 µM; TGI (SN12C renal): > 100 µM; TGI (UACC-257 melanoma): > 100 µM; TGI (HOP-18 NSCLC): > 100 µM; TGI (UO-31 renal): > 100 µM; TGI (SF-268 CNS): > 100 µM; TGI (HCT-15 colon): > 100 µM; TGI (NCI-H460 lung): > 100 µM; TGI (KM20L2 colon): > 100 µM; TGI (A549 NSCLC): > 100 µM; TGI (KM12 colon): > 100 µM; TGI (IGROV1 ovarian): > 100 µM; TGI (NCI-H522 lung): > 100 µM; TGI (SF-295 CNS): > 100 µM; TGI (SW-620 colon): > 100 µM; TGI (K-562 leukemia): > 100 µM; TGI (OVCAR-4 ovarian): > 100 µM; TGI (HL-60(TB) leukemia): > 31.6 µM; TGI (OVCAR-8 ovarian): > 100 µM; TGI (OVCAR-3 ovarian): > 100 µM; TGI (HOP-62 NSCLC): > 100 µM; TGI (COLO 205 colon): > 100 µM; TGI (DMS 114 small cell lung): > 100 µM; TGI (SNB-78 CNS): > 100 µM; TGI (MOLT-4 leukemia): > 100 µM; TGI (DLD-1 colon): > 100 µM; TGI (SNB-75 CNS): > 100 µM; TGI (EKVX NSCLC): > 100 µM; TGI (MALME-3M melanoma): > 100 µM; TGI (SNB-19 CNS): > 100 µM; TGI (M19-MEL melanoma): > 100 µM; TGI (DMS 273 small cell lung): > 100 µM; TGI (MCF7 breast): > 100 µM; TGI (SK-OV-3 ovarian): > 100 µM; TGI (HCT-116 colon): > 100 µM; TGI (P388 leukemia): > 100 µM; TGI (U251 CNS): > 100 µM; TGI (NCI/ADR-RES ovarian): > 100 µM; TGI (NCI-H23 lung): > 100 µM
